One may read the Ki as a measure of affinity in units of concentration, obtained from inhibition or displacement. A word on the IC50: it is the concentration that inhibits the measured activity by half. Low readings indicate higher potency, high ones lower potency.

This note sets out measurements from ChEMBL document CHEMBL1155249, “Molecular modifications on carboxylic acid derivatives as potent histone deacetylase inhibitors: Activity and docking studies” (Bioorg Med Chem, 2009).

The experiment deals with Histone deacetylase. The experiment can be described thus: Inhibition of HDAC in human Hela cells nuclear extracts by fluorimetric assay. Type of experiment: cell-based.
The compound `CCCC(=O)O` [BUTYRIC ACID] came in with a Ki of 136 µM.
Consider `O=C(O)/C=C/c1ccc(O)c(O)c1` [CAFFEIC ACID], for which the IC50 was 2540 µM and the Ki is 10.84 µM.
In the same order, the values of `O=C(/C=C/c1ccc(O)c(O)c1)O[C@@H]1C[C@](O)(C(=O)O)C[C@@H](O)[C@H]1O` [CHLOROGENIC ACID] are 375 µM and 0.135 µM.
Turning to `O=C(O)/C=C/c1ccccc1` [CINNAMIC ACID], the Ki was determined as 0.00821 µM.
Still for that read-out and setting: the value for `NCCCC(=O)O` [GAMMA-AMINOBUTYRIC ACID] was 8.19 µM.
`CCCC(=O)[O-].[Na+]` [SODIUM BUTYRATE]: the IC50 was 800 µM and the Ki is 365 µM.
For `O=C([O-])CCCc1ccccc1.[Na+]` [SODIUM PHENYLBUTYRATE], the Ki amounted to 6.34 µM.
